Reference: PubChem BioAssay AID2060488 (Molecular Pharmacology Branch, DTP, NCI, 2025)

Tested on: 966289-007-R4-J1-PDC complex spheroid viability
Assay: Anticancer human tumor 966289-007-R4-J1-PDC patient-derived pancreatic adenocarcinoma cell line growth inhibition [GQUAD]
Details: for IC50: curve of first compound; for viability, T/C: stronger effect = lower value
Method in brief: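 Tumor cells were grown as complex spheroids with HUVEC endothelial cells and mesenchymal stem cells as stroma. G-quadruplex stabilizers were combined with targeted agents over half-log dilutions from near the clinical Cmax, or from 10 microM.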

[1] = second compound 0.0316 µM, first compound 0.0316 µM
[2] = second compound 0.0316 µM, first compound 0.1 µM
[3] = second compound 0.0316 µM, first compound 0.316 µM
[4] = second compound 0.0316 µM, first compound 1 µM
[5] = second compound 0.0316 µM, first compound 3.16 µM
[6] = second compound 0.0316 µM, first compound 10 µM
[7] = second compound 0.1 µM, first compound 0.0316 µM
[8] = second compound 0.1 µM, first compound 0.1 µM
[9] = second compound 0.1 µM, first compound 0.316 µM
[10] = second compound 0.1 µM, first compound 1 µM
[11] = second compound 0.1 µM, first compound 3.16 µM
[12] = second compound 0.1 µM, first compound 10 µM
[13] = second compound 0.316 µM, first compound 0.0316 µM
[14] = second compound 0.316 µM, first compound 0.1 µM
[15] = second compound 0.316 µM, first compound 0.316 µM
[16] = second compound 0.316 µM, first compound 1 µM
[17] = second compound 0.316 µM, first compound 3.16 µM
[18] = second compound 0.316 µM, first compound 10 µM
[19] = second compound 1 µM, first compound 0.0316 µM
[20] = second compound 1 µM, first compound 0.1 µM
[21] = second compound 1 µM, first compound 0.316 µM
[22] = second compound 1 µM, first compound 1 µM
[23] = second compound 1 µM, first compound 3.16 µM
[24] = second compound 1 µM, first compound 10 µM
[25] = second compound 3.16 µM, first compound 0.0316 µM
[26] = second compound 3.16 µM, first compound 0.1 µM
[27] = second compound 3.16 µM, first compound 0.316 µM
[28] = second compound 3.16 µM, first compound 1 µM
[29] = second compound 3.16 µM, first compound 3.16 µM
[30] = second compound 3.16 µM, first compound 10 µM
[31] = second compound 10 µM, first compound 0.0316 µM
[32] = second compound 10 µM, first compound 0.1 µM
[33] = second compound 10 µM, first compound 0.316 µM
[34] = second compound 10 µM, first compound 1 µM
[35] = second compound 10 µM, first compound 3.16 µM
[36] = second compound 10 µM, first compound 10 µM
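Note: spheroids exposed to the agents for seven days before readout.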
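Throughout, for viability, T/C: percent viability relative to DMSO vehicle control wells taken as 100%.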

In the case of `CC1COCCN1c1cc(-c2ccnn2C)c2ccnc(-c3ccn[nH]3)c2n1` (stereo not drawn) + CN(C)c1ccc(Nc2c3ccc(NC(=O)CCN4CCCC4)cc3nc3cc(NC(=O)CCN4CCCC4)ccc23)cc1, the IC50 (second compound 0.0316 µM) is reported as 0.213 µM, the IC50 (second compound 0.1 µM) is reported as 0.228 µM and the IC50 (second compound 0.316 µM) is reported as 0.214 µM. For the same compound, the IC50 (second compound 1 µM) was 0.24 µM, the IC50 (second compound 3.16 µM) was 0.217 µM and the IC50 (second compound 10 µM) was 0.143 µM. It also gave a viability, T/C [1] of 113%, a viability, T/C [2] of 88.9% and a viability, T/C [3] of 29.1%. For the same compound, the viability, T/C [4] was 11.2%, the viability, T/C [5] was 6.12% and the viability, T/C [6] was 3.97%. It also gave a viability, T/C [7] of 113%, a viability, T/C [8] of 97.5% and a viability, T/C [9] of 30.8%. It also gave a viability, T/C [10] of 10.2%, a viability, T/C [11] of 5.52% and a viability, T/C [12] of 4.49%. The viability, T/C [13] was 108%, the viability, T/C [14] was 89.6% and the viability, T/C [15] was 29.3%. The viability, T/C [16] was 11%, the viability, T/C [17] was 5.87% and the viability, T/C [18] was 4.36%. It also gave a viability, T/C [19] of 107%, a viability, T/C [20] of 96.2% and a viability, T/C [21] of 35.1%. For the same compound, the viability, T/C [22] was 10.6%, the viability, T/C [23] was 4.68% and the viability, T/C [24] was 4.37%. It also gave a viability, T/C [25] of 110%, a viability, T/C [26] of 94.3% and a viability, T/C [27] of 28.2%. It also gave a viability, T/C [28] of 10.7%, a viability, T/C [29] of 6.99% and a viability, T/C [30] of 5.79%. It also gave a viability, T/C [31] of 103%, a viability, T/C [32] of 64.3% and a viability, T/C [33] of 18.2%. The viability, T/C [34] was 9.04%, the viability, T/C [35] was 5.74% and the viability, T/C [36] was 4.94%.

In the case of `CC1COCCN1c1cc(C2(O)CC3CCC(C2)O3)c2cnn(-c3ccn[nH]3)c2n1` (stereo not drawn) + CN(C)c1ccc(Nc2c3ccc(NC(=O)CCN4CCCC4)cc3nc3cc(NC(=O)CCN4CCCC4)ccc23)cc1, the IC50 (second compound 0.0316 µM) is reported as 0.176 µM, the IC50 (second compound 0.1 µM) is reported as 0.177 µM and the IC50 (second compound 0.316 µM) is reported as 0.176 µM. The IC50 (second compound 1 µM) was 0.167 µM, the IC50 (second compound 3.16 µM) was 0.147 µM and the IC50 (second compound 10 µM) was 0.0741 µM. For the same compound, the viability, T/C [1] was 116%, the viability, T/C [2] was 75.1% and the viability, T/C [3] was 24.1%. It also gave a viability, T/C [4] of 8.6%, a viability, T/C [5] of 5.79% and a viability, T/C [6] of 5.95%. The viability, T/C [7] was 112%, the viability, T/C [8] was 81.4% and the viability, T/C [9] was 18.1%. The viability, T/C [10] was 8.59%, the viability, T/C [11] was 5.93% and the viability, T/C [12] was 5.58%. For the same compound, the viability, T/C [13] was 109%, the viability, T/C [14] was 75.8% and the viability, T/C [15] was 23.1%. The viability, T/C [16] was 9%, the viability, T/C [17] was 5.73% and the viability, T/C [18] was 5.87%. It also gave a viability, T/C [19] of 103%, a viability, T/C [20] of 74.3% and a viability, T/C [21] of 19.6%. For the same compound, the viability, T/C [22] was 8.84%, the viability, T/C [23] was 6.93% and the viability, T/C [24] was 4.89%. For the same compound, the viability, T/C [25] was 104%, the viability, T/C [26] was 65.6% and the viability, T/C [27] was 19.1%. It also gave a viability, T/C [28] of 8.61%, a viability, T/C [29] of 6.25% and a viability, T/C [30] of 4.79%. It also gave a viability, T/C [31] of 86.3%, a viability, T/C [32] of 37.3% and a viability, T/C [33] of 12.7%. For the same compound, the viability, T/C [34] was 6.7%, the viability, T/C [35] was 6.68% and the viability, T/C [36] was 3.1%.

Compound `COc1ccc([C@@H](O)c2cc(-c3ncnc4cc(N5CCOCC5)ccc34)c(F)cc2Cl)nn1` + CN(C)c1ccc(Nc2c3ccc(NC(=O)CCN4CCCC4)cc3nc3cc(NC(=O)CCN4CCCC4)ccc23)cc1 has an IC50 (second compound 0.0316 µM) greater than 10 µM, an IC50 (second compound 0.1 µM) greater than 10 µM and an IC50 (second compound 0.316 µM) greater than 10 µM. The IC50 (second compound 1 µM) was greater than 10 µM, the IC50 (second compound 3.16 µM) was greater than 10 µM and the IC50 (second compound 10 µM) was 1.97 µM. It also gave a viability, T/C [1] of 104%, a viability, T/C [2] of 98.6% and a viability, T/C [3] of 104%. For the same compound, the viability, T/C [4] was 108%, the viability, T/C [5] was 110% and the viability, T/C [6] was 99.5%. It also gave a viability, T/C [7] of 101%, a viability, T/C [8] of 97.8% and a viability, T/C [9] of 103%. It also gave a viability, T/C [10] of 104%, a viability, T/C [11] of 109% and a viability, T/C [12] of 98.1%. For the same compound, the viability, T/C [13] was 99.8%, the viability, T/C [14] was 99.5% and the viability, T/C [15] was 106%. For the same compound, the viability, T/C [16] was 107%, the viability, T/C [17] was 107% and the viability, T/C [18] was 90.6%. For the same compound, the viability, T/C [19] was 101%, the viability, T/C [20] was 101% and the viability, T/C [21] was 107%. For the same compound, the viability, T/C [22] was 108%, the viability, T/C [23] was 111% and the viability, T/C [24] was 93%. For the same compound, the viability, T/C [25] was 101%, the viability, T/C [26] was 97.4% and the viability, T/C [27] was 108%. The viability, T/C [28] was 105%, the viability, T/C [29] was 109% and the viability, T/C [30] was 83.4%. For the same compound, the viability, T/C [31] was 103%, the viability, T/C [32] was 97.3% and the viability, T/C [33] was 101%. The viability, T/C [34] was 89.2%, the viability, T/C [35] was 22.6% and the viability, T/C [36] was 8.27%.

Compound `O=C(c1cc(Cc2n[nH]c(=O)c3ccccc23)ccc1F)N1CCN(C(=O)C2CC2)CC1` + CN(C)c1ccc(Nc2c3ccc(NC(=O)CCN4CCCC4)cc3nc3cc(NC(=O)CCN4CCCC4)ccc23)cc1 has an IC50 (second compound 0.0316 µM) of 4.87 µM, an IC50 (second compound 0.1 µM) of 5.02 µM and an IC50 (second compound 0.316 µM) of 4.91 µM. It also gave an IC50 (second compound 1 µM) of 5.07 µM, an IC50 (second compound 3.16 µM) of 3.74 µM and an IC50 (second compound 10 µM) of 1.93 µM. For the same compound, the viability, T/C [1] was 106%, the viability, T/C [2] was 104% and the viability, T/C [3] was 110%. The viability, T/C [4] was 105%, the viability, T/C [5] was 74.2% and the viability, T/C [6] was 9.57%. The viability, T/C [7] was 104%, the viability, T/C [8] was 97.9% and the viability, T/C [9] was 107%. The viability, T/C [10] was 109%, the viability, T/C [11] was 76.7% and the viability, T/C [12] was 10.2%. It also gave a viability, T/C [13] of 100%, a viability, T/C [14] of 103% and a viability, T/C [15] of 101%. For the same compound, the viability, T/C [16] was 108%, the viability, T/C [17] was 75.1% and the viability, T/C [18] was 9.35%. It also gave a viability, T/C [19] of 99.7%, a viability, T/C [20] of 99.3% and a viability, T/C [21] of 104%. The viability, T/C [22] was 109%, the viability, T/C [23] was 79% and the viability, T/C [24] was 8.19%. The viability, T/C [25] was 105%, the viability, T/C [26] was 104% and the viability, T/C [27] was 101%. For the same compound, the viability, T/C [28] was 107%, the viability, T/C [29] was 57.4% and the viability, T/C [30] was 6.49%. The viability, T/C [31] was 102%, the viability, T/C [32] was 103% and the viability, T/C [33] was 104%. The viability, T/C [34] was 95.7%, the viability, T/C [35] was 15.6% and the viability, T/C [36] was 3.36%.
